Values quoted from earlier work as cited in patent US20140370086A1, “SUBLINGUAL IMMUNOTHERAPY WITH REDUCED ORAL ITCHINESS” (priority 2013, published 2014).

Conditions: at high doses

In the case of `O=C(O)c1cc(=O)c2c(OCC(O)COc3cccc4oc(C(=O)O)cc(=O)c34)cccc2o1` [Cromolyn, Cromolyn sodium (cromoglicic acid)], the toxicity is listed as “no toxicity at high doses”.
